Assay results reported in article PMC7251097, “Aspartate/asparagine-β-hydroxylase: a high-throughput mass spectrometric assay for discovery of small molecule inhibitors” (Scientific Reports, 2020).
Counter-ions that a name gives are not always drawn. Like-named read-outs stand apart in the source and are kept apart here. One block for each compound: values may come before it.

Target: T1, His6-AspH315–758 (human aspartate/asparagine-β-hydroxylase, AspH) (Homo sapiens, UniProt Q12797)
T1 construct: N-Terminally His6-tagged human AspH315–758 (His6-AspH315–758) was produced in E. coli BL21 (DE3) cells; made in house; host or cells: E. coli BL21 (DE3), pET-28a(+) vector
T1 sequence (Q12797 315-758): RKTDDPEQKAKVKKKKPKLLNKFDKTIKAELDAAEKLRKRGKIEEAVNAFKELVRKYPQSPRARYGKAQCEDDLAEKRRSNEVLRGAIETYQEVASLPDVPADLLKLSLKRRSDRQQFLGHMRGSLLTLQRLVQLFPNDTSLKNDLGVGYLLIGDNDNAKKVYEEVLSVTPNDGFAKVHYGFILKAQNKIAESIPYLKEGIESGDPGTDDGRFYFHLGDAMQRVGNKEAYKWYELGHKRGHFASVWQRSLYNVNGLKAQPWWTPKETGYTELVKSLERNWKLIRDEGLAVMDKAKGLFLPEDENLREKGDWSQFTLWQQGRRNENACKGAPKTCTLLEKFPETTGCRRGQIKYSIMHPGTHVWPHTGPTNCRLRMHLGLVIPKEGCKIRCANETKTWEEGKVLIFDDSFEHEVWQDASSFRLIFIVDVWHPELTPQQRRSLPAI
Assay: SPE-MS AspH inhibition assay (LOPAC screen at fixed 20 μM and IC50 dose-response), hydroxylation of cyclic peptide hFX-CP101–119
Format: biochemical
Details: for Plate 5 (% inhibition) / Plate 5 (% conversion): plate 5 (Pfitzer), test compounds at fixed 20 μM; for Plate 5 (% conversion): mean conversion DMSO 32.88; for Plate 2 (% inhibition): normalised to DMSO and 2,4-PDCA controls

[1] = AspH activity, fixed compound concentration 20 μM, initial LOPAC screen, 0.5%v/v DMSO, read-out: Inhibition at 20 µM [%]
[2] = LOPAC Plate 4, compound at 20 uM, substrate conversion
[3] = LOPAC Plate 4, compound at 20 uM, read-out: % inhibition
[4] = LOPAC Plate 4, compound at 20 uM
[5] = LOPAC compound at 20uM, conversion of substrate peptide

- Plate 5 (% inhibition): 84.86%
- Plate 5 (% conversion): 7.43%
Structure (SMILES): Cc1cc(CCC[C@H](CC(=O)NO)C(=O)N[C@H](C(=O)N[C@H](C)c2ccccc2)C(C)(C)C)ccc1-c1ccccc1 [UK-356618]

- Plate 5 (% inhibition): 50.83%
- Plate 5 (% conversion): 19.02%
Structure (SMILES): NC(=O)c1noc([C@H](CCCC2CCCCC2)CC(=O)NO)n1 [UK-383367]

- % conversion [2]: 27.32%
Structure (SMILES): COc1ccccc1N1CCN(CCCNc2cc(=O)n(C)c(=O)n2C)CC1 [Urapidil hydrochloride]

- % inhibition [4]: -0.23%
- % conversion [2]: 36.55%
Structure (SMILES): O=c1ccn([C@@H]2O[C@H](COP(=O)([O-])OP(=O)([O-])O)[C@@H](O)[C@H]2O)c(=O)[nH]1.[Na+].[Na+] [Uridine 5-diphosphate sodium]

- Plate 5 (% inhibition): 27.98%
- Plate 5 (% conversion): 26.79%
Structure (SMILES): Cc1onc(-c2ccccc2)c1-c1ccc(S(N)(=O)=O)cc1 [Valdecoxib]

- Plate 2 (% conversion) [5]: 38.77%
- Plate 2 (% inhibition) (LOPAC compound at 20uM): -8.41%
Structure (SMILES): CC(C)C(N)C(=O)OCC(CO)OCn1cnc2c(=O)[nH]c(N)nc21.Cl.O (stereo not shown) [Valganciclovir hydrochloride hydrate]

- Plate 3 (% conversion) (LOPAC compound at 20uM, plate 3, conversion of substrate peptide): 37.52%
Structure (SMILES): CCCC(CCC)C(=O)O [Valproic acid sodium]

- Plate 2 (% conversion) [5]: 35.22%
- Plate 2 (% inhibition) (LOPAC compound at 20uM): 2.19%
Structure (SMILES): CCN(CC)C(=O)c1ccc(O)c(OC)c1 [Vanillic acid diethylamide]

Second part, the compound before the results:

Structure (SMILES): N#CC(C#N)=Cc1ccc(O)c(O)c1 [Tyrphostin 23, reference compound]
- inhibition at 20 µM [1]: 98.7%
- % conversion [2]: 2.79%
- inhibition at 20 µM [3]: 98.7%

Structure (SMILES): N#C/C(=C\c1ccc(O)c(O)c1)C(N)=S [Tyrphostin 47, reference compound]
- % conversion: 2.14%
- inhibition at 20 µM: 101%
- inhibition at 20 µM (read-out: Inhibition at 20 µM [%]): 101%

Structure (SMILES): N#CC(C#N)=C(N)/C(C#N)=C/c1cc(O)c(O)c(O)c1 [Tyrphostin 51, reference compound]
- inhibition at 20 µM [1]: 101%
- % conversion [2]: 2.15%
- inhibition at 20 µM [3]: 101%

Structure (SMILES): N#CC(C#N)=C(N)/C(C#N)=C/c1ccc(O)cc1 [Tyrphostin AG 112]
- % inhibition [4]: -1.91%
- % conversion [2]: 37.12%

Structure (SMILES): N#C/C(=C\c1ccc(O)c(O)c1)C(=O)c1ccc(O)c(O)c1 [Tyrphostin AG 538]
- % conversion [2]: 29.27%

Structure (SMILES): CC(C)(C)c1cc(/C=C(\C#N)C(N)=S)cc(C(C)(C)C)c1O [Tyrphostin AG 879]
- % conversion [2]: 26.24%

Structure (SMILES): COc1cc2ncnc(Nc3cccc(Cl)c3)c2cc1OC [Tyrphostin AG 1478]
- % conversion [2]: 38.87%
- inhibition at 20 µM [3]: -7.04%

Structure (SMILES): N#CC(=C(/N)Sc1ccccc1N)/C(C#N)=C(/N)Sc1ccccc1N [U0126]
- % inhibition [4]: -0.28%
- % conversion [2]: 36.57%

Structure (SMILES): COc1ccc2c(c1)CC[C@@H]1[C@@H]2CC[C@]2(C)[C@@H](NCCCCCCN3C(=O)CCC3=O)CC[C@@H]12 [U-73343]
- Plate 3 (% conversion): 43.26%

Structure (SMILES): C[C@]12C=CC(=O)C=C1CC[C@@H]1C2=CC[C@]2(C)[C@@H](C(=O)CN3CCN(c4cc(N5CCCC5)nc(N5CCCC5)n4)CC3)CC[C@@H]12.O=C(O)/C=C\C(=O)O [U-74389G maleate]
- % conversion: 25.11%
- % inhibition [4]: 33.28%

Structure (SMILES): CCCN(CCC)C1Cc2cc(OC)c(OC)cc2C1.O=C(O)/C=C\C(=O)O [U-99194A maleate]
- % inhibition [4]: 4.59%
- % conversion [2]: 34.90%

Structure (SMILES): CC(C)Oc1cccnc1N(C)C1CCN(Cc2ccccc2)CC1.O=C(O)/C=C\C(=O)O [U-101958 maleate]
- % conversion [2]: 35.76%

Structure (SMILES): Brc1c(NC2=NCCN2)ccc2nccnc12 [UK 14,304]
- % conversion: 39.75%
- % inhibition (20 µM): -9.62%

Structure (SMILES): N#C/C(=C\c1cn(-c2ccccc2)c2ccccc12)C(=O)O [UK-5099]
- Plate 5 (% inhibition): 37.56%
- Plate 5 (% conversion): 23.53%

Structure (SMILES): COc1ccccc1N1CCN(CCCNc2c(C)c(=O)n(C)c(=O)n2C)CC1 [Urapidil, 5-Methyl-]
- % conversion: 36.82%

Structure (SMILES): C[C@H](N)CN1CCc2ccc(Br)cc21.C[C@H](N)CN1CCc2ccc(Br)cc21.O=C(O)/C=C/C(=O)O [VER-3323 hemifumarate salt]
- Plate 3 (% conversion): 21.58%
